Measurements taken from patent publication US20100285959A1, “HERBICIDAL MIXTURES” (priority 2006, published 2010).

Experiments:
velvetleaf (ABUTH) [1] = assay: Test 16 greenhouse, post- and preemergence; conditions: 15 DAA
southern sandbur (CCHEC) = assay: Test 11 field trial, preemergence; type: in vivo, Cenchrus echinatus; design: scale not given here; conditions: atrazine 1500 or metolachlor 2500 g a.i./ha alone
Text: (§1) Corn seeds (hybrid ‘Pioneer 3041’) were planted in mid spring season, 5 cm deep in a clay soil having 2.6% organic matter and a pH of 5.6. Plots were 8 m long by 1.5 m wide with rows spaced 80 cm apart. Seeds were spaced 15 cm apart within the rows. The field was managed using conventional tillage practices. […] Treatments consisted of Compound 2 or
(§2) Goosegrass was not evaluated 16 or 91 days after application.

[2] = tested on: Brazilian crabgrass (DIGHO); assay: Test 11 field trial, preemergence; type: in vivo, Digitaria horizontalis; design: scale not given here; conditions: atrazine 1500 or metolachlor 2500 g a.i./ha alone
Text: as §1, §2

[3] = tested on: tropical spiderwort (COMBE); assay: Test 11 field trial, preemergence; type: in vivo, Commelina benghalensis; design: scale not given here; conditions: atrazine 1500 or metolachlor 2500 g a.i./ha alone
Text: as §1, §2

Surinam grass (BRADC) = assay: Test 11 field trial, preemergence; type: in vivo, Brachiaria decumbens; design: scale not given here; conditions: atrazine 1500 or metolachlor 2500 g a.i./ha alone
Text: as §1, §2

[4] = tested on: Ipomoea grandiflora (IPOGF); assay: Test 11 field trial, preemergence; type: in vivo
Text: as §1, §2

goosegrass (ELEIN) = assay: Test 11 field trial, preemergence; type: in vivo, Eleusine indica
Text: as §1, §2

flint corn (ZEAMI) = assay: Test 11 field trial, preemergence; type: in vivo, Zea mays L. ssp. indurata; design: scale not given here; conditions: atrazine 1500 or metolachlor 2500 g a.i./ha alone
Text: as §1, §2

alexandergrass (BRAPL) = assay: Test 11 field trial, preemergence; type: in vivo, Brachiaria plantaginea; design: scale not given here; conditions: atrazine 1500 or metolachlor 2500 g a.i./ha alone
Text: as §1, §2

common blackjack (BIDPI) = assay: Test 11 field trial, preemergence; type: in vivo, Bidens pilosa; design: scale not given here; conditions: atrazine 1500 or metolachlor 2500 g a.i./ha alone
Text: as §1, §2

arrowleaf sida (SIDRH) = assay: Test 11 field trial, preemergence; type: in vivo, Sida rhombifolia
Text: as §1, §2

velvetleaf (ABUTH) [5] = assay: Test 18 greenhouse, post- and preemergence; conditions: 15 DAA
kochia (KCHSC) = assay: Test 27 field trial, postemergence; type: in vivo, Kochia scoparia; design: scale not given here; conditions: tribenuron-methyl 10 g a.i./ha
Text: (§3) Wheat seeds (cv. ‘Custer’) were planted in late fall season in a clay loam soil. Plots were 9 m long by 1.8 m wide. The field was managed using conventional tillage practices. […] All treatments also included a surfactant. […] Results are the means of the three replicates.

winter wheat (TRZAW) = assay: Test 27 field trial, postemergence; type: in vivo, Triticum aestivum; conditions: in vivo
Text: as §3

[6] = 16 DAA, atrazine 1500 or metolachlor 2500 g a.i./ha alone
[7] = 30 DAA, atrazine 1500 or metolachlor 2500 g a.i./ha alone
[8] = 44 DAA, 2500 g a.i./ha, scale 0 to 100
[9] = 62 DAA, 2500 g a.i./ha, scale 0 to 100
[10] = 91 DAA, 2500 g a.i./ha, scale 0 to 100

## C#CCN1C(=O)COc2cc(F)c(N3C(=O)C4=C(CCCC4)C3=O)cc21 [Flumioxazin]
Velvetleaf (ABUTH) [1]; Postemergence, 7.5 g a.i./ha
  Obs response, scale 0 to 100: 36
Velvetleaf (ABUTH) [1]; Postemergence, 15 g a.i./ha
  Obs response, scale 0 to 100: 47
Velvetleaf (ABUTH) [1]; Postemergence, 30 g a.i./ha
  Obs response, scale 0 to 100: 52
Velvetleaf (ABUTH) [1]; Postemergence, 45 g a.i./ha
  Obs response, scale 0 to 100: 69
Velvetleaf (ABUTH) [1]; Preemergence, 7.5 g a.i./ha
  Obs response, scale 0 to 100: 58
Velvetleaf (ABUTH) [1]; Preemergence, 15 g a.i./ha
  Obs response, scale 0 to 100: 65
Velvetleaf (ABUTH) [1]; Preemergence, 30 g a.i./ha
  Obs response, scale 0 to 100: 93
Velvetleaf (ABUTH) [1]; Preemergence, 45 g a.i./ha
  Obs response, scale 0 to 100: 100

## CCc1cccc(C)c1N(C(=O)CCl)C(C)COC (centres unmarked) [Metolachlor]
Southern sandbur (CCHEC); 16 DAA
  CCHEC Obs: 95
Southern sandbur (CCHEC); 30 DAA
  CCHEC Obs: 97
Southern sandbur (CCHEC); 44 DAA
  CCHEC Obs: 97
Southern sandbur (CCHEC); 62 DAA
  CCHEC Obs: 80
Southern sandbur (CCHEC); 91 DAA
  CCHEC Obs: 100
[2]; 16 DAA
  DIGHO Obs: 100
[2]; 30 DAA
  DIGHO Obs: 100
[2]; 44 DAA
  DIGHO Obs: 100
[2]; 62 DAA
  DIGHO Obs: 100
[2]; 91 DAA
  DIGHO Obs: 95
[3]; 16 DAA
  COMBE Obs: 100
[3]; 30 DAA
  COMBE Obs: 100
[3]; 44 DAA
  COMBE Obs: 100
[3]; 62 DAA
  COMBE Obs: 100
[3]; 91 DAA
  COMBE Obs: 100
Surinam grass (BRADC); 16 DAA
  BRADC Obs: 97
Surinam grass (BRADC); 30 DAA
  BRADC Obs: 95
Surinam grass (BRADC); 44 DAA
  BRADC Obs: 90
Surinam grass (BRADC); 62 DAA
  BRADC Obs: 60
Surinam grass (BRADC); 91 DAA
  BRADC Obs: 40
[4]; [6]
  IPOGF Obs: 70
[4]; [7]
  IPOGF Obs: 60
[4]; [8]
  IPOGF Obs: 40
[4]; [9]
  IPOGF Obs: 40
[4]; [10]
  IPOGF Obs: 40
Goosegrass (ELEIN); [7]
  ELEIN Obs: 100
Goosegrass (ELEIN); [8]
  ELEIN Obs: 100
Goosegrass (ELEIN); [9]
  ELEIN Obs: 100
Flint corn (ZEAMI); 16 DAA
  ZEAMI Obs: 30
Flint corn (ZEAMI); 30 DAA
  ZEAMI Obs: 20
Flint corn (ZEAMI); 44 DAA
  ZEAMI Obs: 25
Flint corn (ZEAMI); 62 DAA
  ZEAMI Obs: 20
Flint corn (ZEAMI); 91 DAA
  ZEAMI Obs: 20
Alexandergrass (BRAPL); 16 DAA
  BRAPL Obs: 97
Alexandergrass (BRAPL); 30 DAA
  BRAPL Obs: 90
Alexandergrass (BRAPL); 44 DAA
  BRAPL Obs: 90
Alexandergrass (BRAPL); 62 DAA
  BRAPL Obs: 60
Alexandergrass (BRAPL); 91 DAA
  BRAPL Obs: 40
Common blackjack (BIDPI); 16 DAA
  BIDPI Obs: 40
Common blackjack (BIDPI); 30 DAA
  BIDPI Obs: 40
Common blackjack (BIDPI); 44 DAA
  BIDPI Obs: 40
Common blackjack (BIDPI); 62 DAA
  BIDPI Obs: 0
Common blackjack (BIDPI); 91 DAA
  BIDPI Obs: 0
Arrowleaf sida (SIDRH); [6]
  SIDRH Obs: 90
Arrowleaf sida (SIDRH); [7]
  SIDRH Obs: 80
Arrowleaf sida (SIDRH); [8]
  SIDRH Obs: 60
Arrowleaf sida (SIDRH); [9]
  SIDRH Obs: 70
Arrowleaf sida (SIDRH); [10]
  SIDRH Obs: 90

## Cc1nn(-c2cc(NS(C)(=O)=O)c(Cl)cc2Cl)c(=O)n1C(F)F [Sulfentrazone]
Velvetleaf (ABUTH) [5]; alone at 7.5 g a.i./ha
  Postemergence ABUTH Obs: 10
  Preemergence ABUTH Obs: 0
Velvetleaf (ABUTH) [5]; alone at 15 g a.i./ha
  Postemergence ABUTH Obs: 19
  Preemergence ABUTH Obs: 3
Velvetleaf (ABUTH) [5]; alone at 30 g a.i./ha
  Postemergence ABUTH Obs: 44
  Preemergence ABUTH Obs: 28

## COC(=O)c1ccccc1S(=O)(=O)NC(=O)N(C)c1nc(C)nc(OC)n1 [Tribenuron-methyl]
Kochia (KCHSC); 16 DAA
  KCHSC Obs: 22
Kochia (KCHSC); 28 DAA
  KCHSC Obs: 23
Kochia (KCHSC); 49 DAA
  KCHSC Obs: 22
Winter wheat (TRZAW); cv. Custer, Triticum aestivum (winter wheat), 16 days after application
  TRZAW Obs: 0
Winter wheat (TRZAW); cv. Custer, Triticum aestivum (winter wheat), 28 days after application
  TRZAW Obs: 0
Winter wheat (TRZAW)
  TRZAW Obs: 0
